# Reference: US20150209327A1, “METHODS FOR THE TREATMENT OF OBESITY USING APREMILAST” (Celgene Corporation, priority 2014, published 2015)
# Where “and” joins values, the source holds several entries; their conditions need not be identical. Equal entries are not always repeated.
# Legend:
# [1] = Psoriasis (PSOR) Phase 3 Data Pool: weight change; format: in vivo, human; settings: 30 mg BID; for Weight % Change Category 0%, n (%) / Weight % Change Category <−20%, n (%) / Weight % Change Category >0% to ≦5%, n (%) / Weight % Change Category >5% to ≦10%, n (%) / Weight % Change Category >10% to ≦20%, n (%) / Weight % Change Category >20%, n (%) / Weight % Change Category ≧−5% to <0%, n (%) / Weight % Change Category ≧−10% to <−5%, n (%) / Weight % Change Category ≧−20% to <−10%, n (%): Subjects as Treated; for observed weight loss of greater than 10%, subjects n (%): subjects as treated
# Excerpt: (§1) Apremilast has shown benefit of weight loss in both Phase 2 and Phase 3 Psoriatic Arthritis (PSA) and Psoriasis (PSOR) trials.
# PDE7 = PDE7 (Homo sapiens, UniProt Q13946); test: PDE7 enzyme assay; format: biochemical
# Method: PDE1, 2, 3 and 5 enzyme assays were prepared as described by Hidaka and Asano. Biochem. Biophys. Acta., 1976, 429:485; see also Nicholsen et al., Trends Pharmaco. Sci., 1991, 12:19. The PDE6 enzyme assay was prepared according to Baehr et al., J. Biol. Chem., 1979, 254:11669 and Gillespie et al., Mol. Pharm., 1989, 36: 773. The PDE7 enzyme assay was prepared according to Bloom and Beavo. Proc. Natl. Acad. Sci. USA, 1996, 93:14188-92.
# [2] = Psoriatic Arthritis (PsA) Phase 3 Data Pool: weight change; format: in vivo, human; settings: 20 mg BID
# Excerpt: as §1
# [3] = Apremilast-exposure Period, m = 1133
# [4] = End of Period (APR, apremilast exposure), Subjects as Initially Treated at Week 0
# [5] = End of Period (APR, apremilast exposure), Subjects as Initially Treated at Week 0, listed as APR
# [6] = End of Period (PBC), Subjects as Initially Treated at Week 0
# [7] = End of Period (apremilast exposure), Apremilast Subjects as Treated
# [8] = Week 52, Apremilast Subjects as Treated
# [9] = Week 78, Apremilast Subjects as Treated
# [10] = Apremilast-exposure Period, Subjects as Treated, m = 943
# [11] = End of Period (PBC, Week 24), Subjects as Initially Treated at Week 0
# Chain of PDE7 (Q13946 whole entry): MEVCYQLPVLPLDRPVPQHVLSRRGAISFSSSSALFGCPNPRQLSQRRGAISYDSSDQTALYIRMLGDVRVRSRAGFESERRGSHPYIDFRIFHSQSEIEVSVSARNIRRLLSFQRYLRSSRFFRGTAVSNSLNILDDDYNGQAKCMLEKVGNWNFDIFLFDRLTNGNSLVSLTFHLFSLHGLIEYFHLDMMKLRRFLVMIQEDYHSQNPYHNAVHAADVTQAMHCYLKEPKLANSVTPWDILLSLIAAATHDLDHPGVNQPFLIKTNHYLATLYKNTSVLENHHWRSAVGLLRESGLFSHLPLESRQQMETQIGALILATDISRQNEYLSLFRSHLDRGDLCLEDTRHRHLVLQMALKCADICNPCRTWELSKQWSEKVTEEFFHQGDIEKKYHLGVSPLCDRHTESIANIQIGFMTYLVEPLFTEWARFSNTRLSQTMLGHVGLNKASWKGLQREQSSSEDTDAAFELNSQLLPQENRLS
compound,measurement,setting,value
"CCOc1cc([C@@H](CS(C)(=O)=O)N2C(=O)c3cccc(NC(C)=O)c3C2=O)ccc1OC [Apremilast, (+)-2-[1-(3-ethoxy-4-methoxyphenyl)-2-methylsulfonylethyl]-4-acetylaminoisoindoline-1,3-dione]","weight decrease reported, subjects n (%)",[1],18 (1.5%) n (%)
same,"Weight % Change Category 0%, n (%)",[1]; [3],72 (6.4) n (%)
same,"Weight % Change Category <−20%, n (%)",[1]; [3],9 (0.8) n (%)
same,"Weight % Change Category >0% to ≦5%, n (%)",[1]; [3],283 (25.0) n (%)
same,"Weight % Change Category >5% to ≦10%, n (%)",[1]; [3],61 (5.4) n (%)
same,"Weight % Change Category >10% to ≦20%, n (%)",[1]; [3],19 (1.7) n (%)
same,"Weight % Change Category >20%, n (%)",[1]; [3],1 (0.1) n (%)
same,"Weight % Change Category ≧−5% to <0%, n (%)",[1]; [3],470 (41.5) n (%)
same,"Weight % Change Category ≧−10% to <−5%, n (%)",[1]; [3],162 (14.3) n (%)
same,"Weight % Change Category ≧−20% to <−10%, n (%)",[1]; [3],56 (4.9) n (%)
same,"observed weight loss of greater than 10%, subjects n (%)",[1]; Apremilast-exposure Period,65(5.7%) n (%)
same,"Change From Baseline (kg) Median (Min, Max)",[1]; [4],"−1.00 (−39.4, 22.3) kg"
same,"Weight, kg End of Period Mean ± SD",[1]; [4],91.05 ± 21.694 kg
same,Change From Baseline (kg) Mean ± SD,[1]; [5],-1.67 kg and -1.67 ± 5.437 kg
same,"Change From Baseline (kg) Median (Min, Max)",[1]; [6],"−1.00 (−34.9, 28.0) kg"
same,"Weight, kg End of Period Mean ± SD",[1]; [6],91.35 ± 21.673 kg
same,Change From Baseline (kg) Mean ± SD,"[1]; End of Period (PBC), Subjects as Initially Treated at Week 0, listed as APR",-1.45 kg and -1.45 ± 3.891 kg
same,Change From Baseline (kg) Mean ± SD,[1]; [7],-1.76 ± 5.344 kg
same,"Change From Baseline (kg) Median (Min, Max)",[1]; [7],"−1.10 (−39.4, 22.3) kg"
same,"Weight, kg Time Point Mean ± SD",[1]; [7],90.72 ± 21.669 kg
same,"Change From Baseline (kg) Median (Min, Max)",[1]; [8],"−1.40 (−39.0, 15.6) kg"
same,"Weight, kg Time Point Mean ± SD",[1]; [8],90.98 ± 22.291 kg
same,Change From Baseline (kg) Mean ± SD,"[1]; Week 52, Apremilast Subjects as Treated, listed as APR",-1.99 kg and -1.99 ± 5.640 kg
same,"Change From Baseline (kg) Median (Min, Max)",[1]; [9],"−2.30 (−28.0, 14.9) kg"
same,"Weight, kg Time Point Mean ± SD",[1]; [9],89.72 ± 22.231 kg
same,Change From Baseline (kg) Mean ± SD,"[1]; Week 78, Apremilast Subjects as Treated, listed as APR",-2.72 kg and -2.72 ± 5.792 kg
same,percentage of subjects with weight change of >−10% to <−5%,[1]; Weeks 0-16,11.7%
same,"Weight % Change Category 0%, n (%)","[1]; Weeks 0-16, m = 1127",108 (9.6) n (%)
same,"Weight % Change Category <−20%, n (%)","[1]; Weeks 0-16, m = 1127",2 (0.2) n (%)
same,"Weight % Change Category >0% to ≦5%, n (%)","[1]; Weeks 0-16, m = 1127",277 (24.6) n (%)
same,"Weight % Change Category >5% to ≦10%, n (%)","[1]; Weeks 0-16, m = 1127",24 (2.1) n (%)
same,"Weight % Change Category >10% to ≦20%, n (%)","[1]; Weeks 0-16, m = 1127",6 (0.5) n (%)
same,"Weight % Change Category >20%, n (%)","[1]; Weeks 0-16, m = 1127",1 (0.1) n (%)
same,"Weight % Change Category ≧−5% to <0%, n (%)","[1]; Weeks 0-16, m = 1127",557 (49.4) n (%)
same,"Weight % Change Category ≧−10% to <−5%, n (%)","[1]; Weeks 0-16, m = 1127",132 (11.7) n (%)
same,"Weight % Change Category ≧−20% to <−10%, n (%)","[1]; Weeks 0-16, m = 1127",20 (1.8) n (%)
same,"observed weight loss of greater than 10%, subjects n (%)",[1]; Weeks 0 to 16,22 (2.0%) n (%)
same,body weight of the majority of subjects,[1]; regardless of duration of exposure,maintained their body weight within 0% and 5% of baseline
same,IC50,PDE7,20.5 µM
same,"weight decrease reported, subjects n (%)",[2],10 (1.0%) n (%)
same,"weight loss of greater than 10%, subjects n (%)",[2]; Apremilast-exposure Period,42 (4.5%) n (%)
same,"Weight % Change Category 0%, n (%)",[2]; [10],74 (7.8) n (%)
same,"Weight % Change Category <−20%, n (%)",[2]; [10],1 (0.1) n (%)
same,"Weight % Change Category >0% to ≦5%, n (%)",[2]; [10],280 (29.7) n (%)
same,"Weight % Change Category >5% to ≦10%, n (%)",[2]; [10],42 (4.5) n (%)
same,"Weight % Change Category >10% to ≦20%, n (%)",[2]; [10],14 (1.5) n (%)
same,"Weight % Change Category >20%, n (%)",[2]; [10],0 n (%)
same,"Weight % Change Category ≧−5% to <0%, n (%)",[2]; [10],393 (41.7) n (%)
same,"Weight % Change Category ≧−10% to <−5%, n (%)",[2]; [10],98 (10.4) n (%)
same,"Weight % Change Category ≧−20% to <−10%, n (%)",[2]; [10],41 (4.3) n (%)
same,"Change From Baseline (kg) Median (Min, Max)",[2]; [4],"−0.60 (−44.3, 14.0) kg"
same,"Weight, kg End of Period Mean ± SD",[2]; [4],84.38 ± 20.636 kg
same,Change From Baseline (kg) Mean ± SD,[2]; [5],-1.13 kg and -1.13 ± 4.491 kg
same,"Change From Baseline (kg) Median (Min, Max)",[2]; [11],"−0.50 (−17.2, 11.5) kg"
same,"Weight, kg End of Period Mean ± SD",[2]; [11],84.47 ± 20.734 kg
same,Change From Baseline (kg) Mean ± SD,"[2]; End of Period (PBC, Week 24), Subjects as Initially Treated at Week 0, listed as APR",-1.05 kg and -1.05 ± 3.366 kg
same,Change From Baseline (kg) Mean ± SD,[2]; [7],-1.16 ± 4.255 kg
same,"Change From Baseline (kg) Median (Min, Max)",[2]; [7],"−0.50 (−44.3, 14.0) kg"
